Consider 15 compounds from ChEMBL document CHEMBL2150961, “Serum stability of selected decapeptide agonists of KISS1R using pseudopeptides” (Bioorg Med Chem Lett, 2012).

Starred links: 1 amine or outer side, 2 acyl side, 3 side chain; linkers in the order of their positions; H or OH if unused. Non-standard residues stand in square brackets, D forms with d. Residues, ends and D or L forms follow the SMILES beside them. X1 = O=C(CNC(=S)[C@H](Cc1ccccc1)N[*:1])[*:2]; 2Nal = N[C@@H](Cc1ccc2ccccc2c1)C(=O)O; Arg(Me) = CNC(=N)NCCC[C@H](N)C(=O)O; 3Pal = N[C@@H](Cc1cccnc1)C(=O)O; 4Pal = N[C@@H](Cc1ccncc1)C(=O)O; d4Pal = N[C@H](Cc1ccncc1)C(=O)O; azaGly = NNC(=O)O

A short description of data set [1]: Metabolic stability of the compound in human serum assessed as compound residual ratio after 5 mins. Format: ADME, cell-free. The following applies: read-out: Stability.
The target of data set [2] is T1, KiSS-1 receptor (Homo sapiens, UniProt Q969F8). Briefly: Agonist activity at human KISS1R assessed as induction of intracellular calcium mobilization by fluorometric analysis. Format: functional, cell-based. (Calcium assays in cells follow changes in intracellular calcium, usually with a dye or a luminescent sensor.)
T1 sequence (Q969F8 whole entry): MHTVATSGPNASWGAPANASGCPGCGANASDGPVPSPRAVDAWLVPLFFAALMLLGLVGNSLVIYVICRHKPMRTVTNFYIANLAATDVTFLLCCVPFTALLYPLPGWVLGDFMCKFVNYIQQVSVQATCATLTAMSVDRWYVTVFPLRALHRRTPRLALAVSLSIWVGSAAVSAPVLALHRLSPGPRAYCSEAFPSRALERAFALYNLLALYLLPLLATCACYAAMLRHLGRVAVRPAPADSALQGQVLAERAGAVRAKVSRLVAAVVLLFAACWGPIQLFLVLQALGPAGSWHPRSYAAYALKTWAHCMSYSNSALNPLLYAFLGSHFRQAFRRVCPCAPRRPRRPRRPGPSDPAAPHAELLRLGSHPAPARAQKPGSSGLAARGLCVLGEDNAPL
Data set [3] in a line: Metabolic stability of the compound in human serum assessed as compound residual ratio after 10 mins. It counts as ADME, cell-free. The settings on record: read-out: Stability.
The nature of data set [4]: Drug metabolism in mouse plasma at 0.1 mM after 1 min by HPLC-ESI-MS analysis. Format: ADME, cell-free. The following applies: read-out: Drug metabolism.
Data set [5] is described as follows: Metabolic stability of the compound in human serum assessed as compound residual ratio after 15 mins. Format: ADME, cell-free. The following applies: read-out: Stability.
The target in data set [6] is T1, KiSS-1 receptor. The experiment in a line: Binding affinity to human KISS1R.
The nature of data set [7]: Half life in human serum. Format: ADME, cell-free.
A short description of data set [8]: Metabolic stability of the compound in mouse serum assessed as compound residual ratio at 0.1 mM after 1 hr. The settings on record: read-out: Stability. Format: ADME, cell-free.
In data set [9] the target is KiSS-1 receptor (Rattus norvegicus, UniProt Q924U1). Briefly: Binding affinity to rat KISS1R.
KiSS-1 receptor (Rattus norvegicus, UniProt Q924U1), sequence (Q924U1 whole entry): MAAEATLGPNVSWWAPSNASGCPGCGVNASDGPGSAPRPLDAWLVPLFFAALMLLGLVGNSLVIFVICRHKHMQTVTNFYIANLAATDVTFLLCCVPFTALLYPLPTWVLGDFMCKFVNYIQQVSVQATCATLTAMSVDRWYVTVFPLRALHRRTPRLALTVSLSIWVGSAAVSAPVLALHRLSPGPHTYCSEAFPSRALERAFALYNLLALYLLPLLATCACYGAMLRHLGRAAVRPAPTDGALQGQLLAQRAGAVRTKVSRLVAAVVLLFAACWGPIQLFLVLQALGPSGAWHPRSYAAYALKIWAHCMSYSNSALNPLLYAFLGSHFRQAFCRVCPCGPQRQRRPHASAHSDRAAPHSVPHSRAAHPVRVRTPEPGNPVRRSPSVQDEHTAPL
Data set [10] concerns Serum. The experiment in a line: Metabolic stability of the compound in human serum. It counts as ADME, cell-free.

Consider `CC(C)C[C@H](NC(=O)CNC(=O)[C@H](Cc1ccccc1)NC(=O)[C@H](CO)NC(=O)[C@H](CC(N)=O)NC(=O)[C@H](Cc1c[nH]c2ccccc12)NC(=O)[C@H](CC(N)=O)NC(=O)[C@@H](N)Cc1ccc(O)cc1)C(=O)N[C@@H](CCCNC(=N)N)C(=O)N[C@@H](Cc1ccccc1)C(N)=O` [KISSPEPTIN-10], for which the remaining at 5 min in [1] stood at 0.9%. The EC50 (usually the concentration giving half of the maximal effect) in data set [2] came to 49 pM. In [3], the remaining at 10 min was under 0.5%. In addition, in data set [4], the metabolised at 1 min, 100 µM was over 50%. Besides, the remaining at 0.25 h in data set [5] was under 0.5%. The IC50 (as a rule, the concentration needed to halve the response being measured) in data set [6] worked out at 82 pM. Further, the half-life (usually the time in which the quantity being followed falls by half) in data set [7] was under 0.0167 h.

`CNC(N)=NCCC[C@H](NC(=O)[C@H](CC(C)C)NC(=O)NNC(=O)[C@H](Cc1ccccc1)NC(=O)[C@H](CO)NC(=O)[C@H](CC(N)=O)NC(=O)[C@H](Cc1ccncc1)NC(=O)[C@H](CC(N)=O)NC(=O)[C@H](N)Cc1ccc(O)cc1)C(=O)N[C@@H](Cc1ccccc1)C(N)=O` (H-[dY]N[4Pal]NSF[azaGly]L[Arg(Me)]F-NH2): the remaining at 1 h, 100 µM in data set [8] is 30.7%. In addition, the EC50 in [2] was 110 pM. Besides, the figures for the IC50 in [9] and in data set [6] were 280 pM and 300 pM, respectively.

In the case of `CNC(=N)NCCC[C@H](NC(=O)[C@H](CC(C)C)NC(=O)NNC(=O)[C@H](Cc1ccccc1)NC(=O)[C@H](CO)NC(=O)[C@H](CC(N)=O)NC(=O)[C@H](Cc1ccc2ccccc2c1)NC(=O)[C@H](CC(N)=O)NC(=O)[C@H](N)Cc1ccc(O)cc1)C(=O)N[C@@H](Cc1ccccc1)C(N)=O` (H-[dY]N[2Nal]NSF[azaGly]L[Arg(Me)]F-NH2), the remaining at 1 h, 100 µM in data set [8] was found to be 43.6%. Moreover, the EC50 in data set [2] was determined as 98 pM. The IC50 in data set [9] came to 200 pM; in data set [6], 130 pM.

`CNC(N)=NCCC[C@H](NC(=O)[C@H](CC(C)C)NC(=O)CNC[C@H](Cc1ccccc1)NC(=O)[C@H](CO)NC(=O)[C@H](CC(N)=O)NC(=O)[C@H](Cc1c[nH]c2ccccc12)NC(=O)[C@H](CC(N)=O)NC(=O)[C@H](N)Cc1ccc(O)cc1)C(=O)N[C@@H](Cc1ccccc1)C(N)=O`: the remaining at 1 h, 100 µM in [8] came to 12.1%. Moreover, the EC50 in data set [2] is 620 pM. Also, the figures for the IC50 in data set [9] and in [6] were 1400 pM and 610 pM, respectively.

With `CNC(N)=NCCC[C@H](NC(=O)[C@H](CC(C)C)NC(=O)NNC(=O)[C@H](Cc1ccccc1)NC(=O)[C@H](CO)NC(=O)[C@H](CC(N)=O)NC(=O)[C@@H](Cc1ccncc1)NC(=O)[C@H](CC(N)=O)NC(=O)[C@H](N)Cc1ccc(O)cc1)C(=O)N[C@@H](Cc1ccccc1)C(N)=O` (H-[dY]N[d4Pal]NSF[azaGly]L[Arg(Me)]F-NH2), in data set [2], the EC50 is 590 pM. Further, the IC50 in [9] and in [6] was 280 pM throughout.

`CNC(=N)NCCC[C@H](NC(=O)[C@H](CC(C)C)NC(=O)NNC(=O)[C@H](Cc1ccccc1)NC(=O)[C@H](CO)NC(=O)[C@H](CC(N)=O)NC(=O)[C@H](Cc1cccnc1)NC(=O)[C@H](CC(N)=O)NC(=O)[C@H](N)Cc1ccc(O)cc1)C(=O)N[C@@H](Cc1ccccc1)C(N)=O` (H-[dY]N[3Pal]NSF[azaGly]L[Arg(Me)]F-NH2): the remaining at 1 h, 100 µM in data set [8] was determined as 50.6%. Besides, the EC50 in [2] amounted to 240 pM. In addition, the IC50 in data set [9] worked out at 890 pM; in [6], 700 pM.

Regarding `CC[C@H](C)[C@H](NC(=O)[C@H](CC(N)=O)NC(=O)[C@H](N)Cc1ccc(O)cc1)C(=O)N[C@@H](CC(N)=O)C(=O)N[C@@H](CO)C(=O)N[C@@H](Cc1ccccc1)C(=O)NNC(=O)N[C@@H](CC(C)C)C(=O)N[C@@H](CCCNC(=N)NC)C(=O)N[C@@H](Cc1ccccc1)C(N)=O` (H-[dY]NINSF[azaGly]L[Arg(Me)]F-NH2), the EC50 in data set [2] is 130 pM. Further, the IC50 in data set [9] was 460 pM; in data set [6], 430 pM.

For `CNC(=N)NCCC[C@H](NC(=O)[C@H](CC(C)C)NC(=O)NNC(=O)[C@H](Cc1ccccc1)NC(=O)[C@H](CO)NC(=O)[C@H](CC(N)=O)NC(=O)[C@H](Cc1c[nH]c2ccccc12)NC(=O)[C@H](CC(N)=O)NC(=O)[C@H](N)Cc1ccc(O)cc1)C(=O)N[C@@H](Cc1ccccc1)C(N)=O`, in data set [8], the remaining at 1 h, 100 µM stood at 39.5%. The compound also yielded an IC50 in data set [6] of 160 pM.

With `CNC(N)=NCCC[C@H](NC(=O)[C@H](CC(C)C)NC(=O)NNC(=O)[C@H](Cc1ccccc1)NC(=O)[C@H](CO)NC(=O)[C@H](CC(N)=O)NC(=O)[C@H](CC1CCCCC1)NC(=O)[C@H](CC(N)=O)NC(=O)[C@H](N)Cc1ccc(O)cc1)C(=O)N[C@@H](Cc1ccccc1)C(N)=O`, the remaining at 1 h, 100 µM in data set [8] came out at 32%. Also, the EC50 in data set [2] was 100 pM. For the same compound, the IC50 in [9] is 240 pM; in data set [6] it was 190 pM.

Turning to `CNC(N)=NCCC[C@H](NC(=O)[C@H](CC(C)C)NC(=O)CC(=O)N[C@H](Cc1ccccc1)NC(=O)[C@H](CO)NC(=O)[C@H](CC(N)=O)NC(=O)[C@H](Cc1c[nH]c2ccccc12)NC(=O)[C@H](CC(N)=O)NC(=O)[C@H](N)Cc1ccc(O)cc1)C(=O)N[C@@H](Cc1ccccc1)C(N)=O`, the remaining at 1 h, 100 µM in data set [8] stood at 46.8%. The EC50 in [2] came out at 950 pM. The values for the IC50 in data set [9] and in data set [6] were 2900 pM and 510 pM, respectively.

Regarding `CNC(N)=NCCC[C@H](NC(=O)[C@H](CC(C)C)NC(=O)NNC(=O)[C@H](Cc1ccccc1)NC(=O)[C@H](CO)NC(=O)[C@H](CC(N)=O)NC(=O)[C@@H](NC(=O)[C@H](CC(N)=O)NC(=O)[C@H](N)Cc1ccc(O)cc1)[C@@H](C)O)C(=O)N[C@@H](Cc1ccccc1)C(N)=O` (H-[dY]NTNSF[azaGly]L[Arg(Me)]F-NH2), the remaining at 1 h, 100 µM in [8] was 62.5%. Moreover, the EC50 in data set [2] was found to be 240 pM. For the same compound, the IC50 in [9] came to 830 pM; in data set [6], 860 pM.

Take `CNC(N)=NCCC[C@H](NC(=O)[C@H](CC(C)C)NC(=O)NNC(=O)[C@H](Cc1ccccc1)NC(=O)[C@H](CO)NC(=O)[C@H](CC(N)=O)NC(=O)[C@H](CO)NC(=O)[C@H](CC(N)=O)NC(=O)[C@H](N)Cc1ccc(O)cc1)C(=O)N[C@@H](Cc1ccccc1)C(N)=O` (H-[dY]NSNSF[azaGly]L[Arg(Me)]F-NH2): in data set [8], the remaining at 1 h, 100 µM came out at 50%. Besides, the remaining at 5 min in data set [1] is 86.5%. Further, in data set [2], the EC50 was 730 pM. Besides, the Stability result in data set [10] is on record as “Stable”. Besides, the IC50 in data set [9] was 430 pM; in [6], 490 pM. Besides, the remaining at 10 min in [3] is 85.3%. For the same compound, in [5], the remaining at 0.25 h stood at 86.4%.

On to `CNC(N)=NCCC[C@H](NC(=O)[C@H](CC(C)C)NC(=O)CNC(=O)[C@H](Cc1ccccc1)NC(=O)[C@H](CO)NC(=O)[C@H](CC(N)=O)NC(=O)[C@H](Cc1c[nH]c2ccccc12)NC(=O)[C@H](CC(N)=O)NC(=O)[C@H](N)Cc1ccc(O)cc1)C(=O)N[C@@H](Cc1ccccc1)C(N)=O`, for which the remaining at 1 h, 100 µM in data set [8] came to 18.1%. Further, in [1], the remaining at 5 min is 90.7%. The EC50 in data set [2] amounted to 65 pM. Moreover, the remaining at 10 min in [3] is 85.8%. In [5], the remaining at 0.25 h was determined as 82.7%. This compound returned an IC50 in data set [6] of 110 pM. The compound also had a half-life in data set [7] of 1.25 h.

In the case of `CNC(N)=NCCC[C@H](NC(=O)[C@H](CC(C)C)NC(=O)CNC(=S)[C@H](Cc1ccccc1)NC(=O)[C@H](CO)NC(=O)[C@H](CC(N)=O)NC(=O)[C@H](Cc1c[nH]c2ccccc12)NC(=O)[C@H](CC(N)=O)NC(=O)[C@H](N)Cc1ccc(O)cc1)C(=O)N[C@@H](Cc1ccccc1)C(N)=O` (H-[dY]NWNS[X1]L[Arg(Me)]F-NH2), the remaining at 1 h, 100 µM in [8] was 35.3%. In data set [2], the EC50 stood at 41 pM. Moreover, the half-maximal inhibitory concentration (IC50) in data set [9] was 3300 pM; in [6], 2800 pM.

As to `CNC(N)=NCCC[C@H](NC(=O)[C@H](CC(C)C)NC(=O)NNC(=O)[C@H](Cc1ccccc1)NC(=O)[C@H](CO)NC(=O)[C@H](CC(N)=O)NC(=O)[C@@H](Cc1c[nH]c2ccccc12)NC(=O)[C@H](CC(N)=O)NC(=O)[C@H](N)Cc1ccc(O)cc1)C(=O)N[C@@H](Cc1ccccc1)C(N)=O`, the remaining at 1 h, 100 µM in [8] stood at 56.4%. Also, in data set [2], the EC50 came to 72 pM. In data set [6], the IC50 was found to be 190 pM.
